Measured values taken from US10016409B2, “Method for improving interstitial flow” (priority 2012, dated 2018).

Experiments:
[1] = test system: Alzheimer's patients; conditions: cilostazol alone in Alzheimer's patients, Non-patent Document 10; cited from earlier work
[2] = test system: MCI patients; assay: Clinical record analysis, MMSE change in MCI patients (MMSE 22 to 26) under donepezil hydrochloride oral administration; assay type: in vivo, human; conditions: additional oral cilostazol in MCI patients under donepezil hydrochloride
Description: Patients subjected to oral administration of donepezil hydrochloride, having an observation period of one or more years before the MMSE test date, and having first MMSE scores less than or equal to 26 were picked up from a clinical record. Among the patients, patients recorded to have been consecutively administered with cilostazol for 6 months or more in the observation period were classified as a donepezil hydrochloride and cilostazol combined use group (69 cases), and patients recorded to have experienced no cilostazol oral administration were classified as a donepezil hydrochloride single use group (87 cases). Cilostazol was oral-administered at a dosage of 50 to 200 mg/day in the morning and evening, and donepezil hydrochloride was administered at a dosage of 5 mg/day once in a day. Among the patients, patients with MMSE scores greater than or equal to 22 and less than or equal to 26 were extracted as an MCI patient group. Then, 36 cases (16 males and 20 females, average age: 78.4 years old) of the donepezil hydrochloride single use group (hereinafter referred to as a single use group) and 34 cases (15 males and 19 females, average age: 77.2 years old) of the donepezil hydrochloride and cilostazol combined use group (hereinafter referred to as combined use group) were found. The average dosage of cilostazol in the combined use group was 121 mg/day. […] Measurement of MMSE was conducted at least twice in the observation period, and the first and last test results were selected for analysis.

[3] = test system: Tg-SwDI mice; assay: Cerebrovascular diameter increase under acetylcholine administration to the brain surface; assay type: in vivo; conditions: acetylcholine 100 μM perfused, vs ordinary feed
Description: In the brain interstitial flow in a central nervous system, vascular wall motion due to artery vascular pulsation serves as a driving force so that harmful proteins are excreted. Dilation of artery in vascular pulsation occurs when the blood pressure in artery increases due to pulsation of heart. A decrease in dilation ability of artery attenuates vascular wall motion, and reduces the interstitial flow accordingly. In the presence of aged mice and cerebral amyloid angiopathy, vascular elasticity (flexibility) of cerebral artery considerably decreases, and vascular wall motion attenuates. Thus, the ability of excretion of harmful proteins deteriorates. In this study, the influence of cilostazol administration on vascular elasticity ability under acetylcholine administration was examined.
It is known that acetylcholine has the physiological action of improving vascular elasticity. […]
In a manner similar to section (1) regarding vascular elasticity enhancement by cilostazol discussed above, model mice (Tg-SwDI mice) (Davis et al, 2004) showing pathological changes, especially cerebral amyloid angiopathy, were used. […] Cerebral blood vessels were visualized with FITC-dextran, and the rate of change in vessel diameter from a time before administration to 3 minutes after the start of administration was analyzed. […]

[4] = test system: Tg-SwDI mice; assay: Cerebral artery reactivity to CO2 supply (vascular pulsation driving force) in Tg-SwDI mice; assay type: in vivo; conditions: vs ordinary feed group
Description: In brain interstitial flow in a central nervous system, vascular wall motion caused by vascular pulsation of artery serves as a driving force so that harmful proteins are excreted (see Mechanisms to explain the reverse perivascular transport of solutes out of the brain. J Theor Biol. 2006 Feb. 21; 238(4): 962-74), Dilation of artery in vascular pulsation is caused by an increased blood pressure in artery due to pulsation of heart, and a decrease in dilation ability of artery attenuates vascular wall motion, and also reduces the interstitial flow. […] The degree of vascular elasticity in cerebral artery can be evaluated by using reactivity with a change in the concentration of blood carbon dioxide. Specifically, cerebral artery whose vascular elasticity and vascular pulsation driving force are maintained, has the ability of sufficiently dilating the vessel diameter afer an increase in the concentration of blood carbon dioxide, and maintains excretion ability for harmful proteins through h interstitial flow. On the other hand, cerebral artery whose vascular elasticity and vascular pulsation driving force are decreased, loses the ability of sufficiently dilating the vessel diameter in response to an increase in the concentration of blood carbon dioxide, and has its escretion ability for harmful proteins impaired. […]

## O=C1CCc2cc(OCCCCc3nnnn3C3CCCCC3)ccc2N1 [cilostazol, 6-[4-(1-cyclohexyl-1H-tetrazole-5-yl)butoxy]3,4-dihydrocarbostyril]
[1]
  mini-mental state examination (MMSE): no change is observed
[2]
  reduction of the annual decrease rate of MMSE scores: about 80%
[3]; cilostazol-containing feed for 8 months, age 12 months, FIG. 23
  relative increase in cerebrovascular diameter under acetylcholine administration: dilated
[3]; cilostazol-containing feed for 13.5 months, age 15 months, FIG. 24
  relative increase in cerebrovascular diameter under acetylcholine administration: dilated
[4]; 5% CO2, cilostazol-containing feed for 13.5 months, age 15 months, FIG. 5
  cerebral artery vasodilation ability with the CO2 supply (relative increase in cerebrovascular diameter): significantly enhances cerebral artery vasodilation ability
[4]; cilostazol-containing feed for 8 months, age 12 months, FIG. 6
  cerebral artery vasodilation ability (relative increase rate of the vessel diameter) by the CO2 supply: significantly increases the cerebral artery vasodilation ability
